{"source": "patent US20070128217A1", "about": "(priority 2003, published 2007)", "key": {"[1]": {"tested_on": "control sera (pooled serum of ten healthy LUMC hospital workers; commercial negative donor pooled serum from the Dutch bloodbank)", "type": "binding, human", "design": "Binding of Control serum LUMC to linear peptides / Binding of Control serum Blood-bank to linear peptides / Binding of Control serum LUMC to looped peptides / Binding of Control Serum Blood-Bank to Looped peptides / Binding of Control serum LUMC to linear peptides of the protein M of SARS-CoV Urbani / Binding of Control serum Blood-bank to linear peptides of the protein M of SARS-CoV Urbani / Binding of Control serum LUMC to looped peptides of the protein M of SARS-CoV Urbani / Binding of Control Serum Blood-Bank to Looped peptides of the protein M of SARS-CoV Urbani: unit not given here"}, "[2]": {"tested_on": "antibodies in sera from SARS patients (sera 1a, 1b, 2, 6, 37, 62, London, SARS-yellow, SARS-green)", "type": "binding, human", "design": "Binding of serum 6 to linear peptides of protein X1 of SARS-CoV Urbani / Binding of serum 37 to linear peptides of protein X1 of SARS-CoV Urbani / Binding of serum 6 to looped/cyclic peptide (PEPSCAN-ELISA) / Binding of serum 37 to looped/cyclic peptide (PEPSCAN-ELISA) / Binding of serum 37 to looped/cyclic peptides of protein X1 of SARS-CoV Urbani / Binding of serum 6 to linear peptides of protein X2 / Binding of serum 37 to linear peptides of protein X2 / Binding of serum 37 to looped/cyclic peptides of protein X2 of SARS-CoV Urbani / Binding of serum 6 to linear peptides of protein M of SARS-CoV Urbani / Binding of serum 37 to linear peptides of protein M of SARS-CoV Urbani / Binding of serum 6 to looped/cyclic peptides of protein M of SARS-CoV Urbani / Binding of serum 37 to looped/cyclic peptides of protein M of SARS-CoV Urbani / Binding of serum 6 to linear peptides of protein X3 of SARS-CoV Urbani / Binding of serum 37 to linear peptides of protein X3 of SARS-CoV Urbani / Binding of serum 37 to looped/cyclic peptides of protein X3 of SARS-CoV Urbani / Binding of serum 6 to linear peptides of protein X4 of SARS-CoV Urbani / Binding of serum 37 to linear peptides of protein X4 of SARS-CoV Urbani / Binding of serum 37 to looped/cyclic peptides of protein X4 of SARS-CoV Urbani / Binding of serum 6 to linear peptides of protein X5 of SARS-CoV Urbani / Binding of serum 37 to linear peptides of protein X5 of SARS-CoV Urbani / Binding of serum 37 to looped/cyclic peptides of protein X5 of SARS-CoV Urbani / Binding of serum 6 to linear peptides of protein N of SARS-CoV Urbani / Binding of serum 37 to linear peptides of protein N of SARS-CoV Urbani / Binding of serum 6 to linear peptide (PEPSCAN-ELISA) / Binding of serum 1a to looped/cyclic peptides of protein N of SARS-CoV Urbani / Binding of serum 1b to looped/cyclic peptides of protein N of SARS-CoV Urbani / Binding of serum 2 to looped/cyclic peptides of protein N of SARS-CoV Urbani / Binding of serum 6 to looped/cyclic peptides of protein N of SARS-CoV Urbani / Binding of serum 37 to looped/cyclic peptides of protein N of SARS-CoV Urbani / Binding of serum 62 to looped/cyclic peptides of protein N of SARS-CoV Urbani / Binding of serum London to looped/cyclic peptides of protein N of SARS-CoV Urbani / Binding of serum SARS-green to looped/cyclic peptides of protein N of SARS-CoV Urbani: unit not given here"}, "[3]": {"tested_on": "rabbit serum obtained by immunizing a rabbit with the SARS-CoV strain Frankfurt 1", "type": "binding", "design": "Binding of a rabbit serum to linear peptides / Binding of a rabbit serum to looped peptides / Rabbit serum linear peptides / Rabbit serum looped peptides / Binding of a rabbit serum to linear peptides of protein N of SARS-CoV Urbani (Rabbit serum linear peptides) / Binding of a rabbit serum to looped/cyclic peptides of protein N of SARS-CoV Urbani (Rabbit serum looped peptides): unit not given here"}}, "data": [{"sequence": "VTAFQHQNSKKTTKL", "values": [{"measurement": "Binding of Control Serum Blood-Bank to Looped peptides", "setting": "[1]", "value": 0.5}, {"measurement": "Binding of Control serum Blood-bank to linear peptides", "setting": "[1]", "value": 0.3}, {"measurement": "Binding of Control serum LUMC to linear peptides", "setting": "[1]", "value": 0.5}, {"measurement": "Binding of Control serum LUMC to looped peptides", "setting": "[1]", "value": 0.5}, {"measurement": "Binding of serum 1a to linear peptides of protein X2", "setting": "[2]", "value": 0.4}, {"measurement": "Binding of serum 1a to looped/cyclic peptides of protein X2 of SARS-CoV Urbani", "setting": "[2]", "value": 0.4}, {"measurement": "Binding of serum 1b to linear peptides of protein X2", "setting": "[2]", "value": 0.4}, {"measurement": "Binding of serum 1b to looped/cyclic peptides of protein X2 of SARS-CoV Urbani", "setting": "[2]", "value": 0.3}, {"measurement": "Binding of serum 2 to linear peptides of protein X2", "setting": "[2]", "value": 0.2}, {"measurement": "Binding of serum 2 to looped/cyclic peptides of protein X2 of SARS-CoV Urbani", "setting": "[2]", "value": 0.1}, {"measurement": "Binding of serum 6 to linear peptides of protein X2", "setting": "[2]", "value": 0.3}, {"measurement": "Binding of serum 6 to looped/cyclic peptides of protein X2 of SARS-CoV Urbani", "setting": "[2]", "value": 0.3}, {"measurement": "Binding of serum 37 to linear peptides of protein X2", "setting": "[2]", "value": 0.5}, {"measurement": "Binding of serum 37 to looped/cyclic peptides of protein X2 of SARS-CoV Urbani", "setting": "[2]", "value": 0.3}, {"measurement": "Binding of serum 62 to linear peptides of protein X2", "setting": "[2]", "value": 0.3}, {"measurement": "Binding of serum 62 to looped/cyclic peptides of protein X2 of SARS-CoV Urbani", "setting": "[2]", "value": 0.5}, {"measurement": "Binding of serum London to linear peptides of protein X2", "setting": "[2]", "value": 0.1}, {"measurement": "Binding of serum London to looped/cyclic peptides of protein X2 of SARS-CoV Urbani", "setting": "[2]", "value": 0.2}, {"measurement": "Binding of serum SARS-green to linear peptides of protein X2", "setting": "[2]", "value": 0.1}, {"measurement": "Binding of serum SARS-green to looped/cyclic peptides of protein X2 of SARS-CoV Urbani", "setting": "[2]", "value": 0.2}, {"measurement": "Binding of serum SARS-yellow to linear peptides of protein X2", "setting": "[2]", "value": 0.7}, {"measurement": "Binding of serum SARS-yellow to looped/cyclic peptides of protein X2 of SARS-CoV Urbani", "setting": "[2]", "value": 0.5}, {"measurement": "Binding of a rabbit serum to linear peptides", "setting": "[3]", "value": 0.6}, {"measurement": "Binding of a rabbit serum to looped peptides", "setting": "[3]", "value": 0.4}]}, {"sequence": "RNRFLYIIKLVFLWL", "values": [{"measurement": "Binding of Control Serum Blood-Bank to Looped peptides of the protein M of SARS-CoV Urbani", "setting": "[1]", "value": 0.7}, {"measurement": "Binding of Control serum Blood-bank to linear peptides of the protein M of SARS-CoV Urbani", "setting": "[1]", "value": 0.6}, {"measurement": "Binding of Control serum LUMC to linear peptides of the protein M of SARS-CoV Urbani", "setting": "[1]", "value": 0.7}, {"measurement": "Binding of Control serum LUMC to looped peptides of the protein M of SARS-CoV Urbani", "setting": "[1]", "value": 0.8}, {"measurement": "Binding of serum 1a to linear peptides of protein M of SARS-CoV Urbani", "setting": "[2]", "value": 0.6}, {"measurement": "Binding of serum 1b to linear peptides of protein M of SARS-CoV Urbani", "setting": "[2]", "value": 0.5}, {"measurement": "Binding of serum 2 to linear peptides of protein M of SARS-CoV Urbani", "setting": "[2]", "value": 0.4}, {"measurement": "Binding of serum 6 to linear peptides of protein M of SARS-CoV Urbani", "setting": "[2]", "value": 0.5}, {"measurement": "Binding of serum 37 to linear peptides of protein M of SARS-CoV Urbani", "setting": "[2]", "value": 0.4}, {"measurement": "Binding of serum 62 to linear peptides of protein M of SARS-CoV Urbani", "setting": "[2]", "value": 0.5}, {"measurement": "Binding of serum London to linear peptides of protein M of SARS-CoV Urbani", "setting": "[2]", "value": 0.3}, {"measurement": "Binding of serum SARS-green to linear peptides of protein M of SARS-CoV Urbani", "setting": "[2]", "value": 0.4}, {"measurement": "Binding of serum SARS-yellow to linear peptides of protein M of SARS-CoV Urbani", "setting": "[2]", "value": 0.3}, {"measurement": "Recognition of the peptide by sera of SARS-CoV infected individuals, and form (linear, looped/cyclic) in which it is recognized", "setting": "[2]", "value": "recognized in looped/cyclic form"}, {"measurement": "Rabbit serum linear peptides", "setting": "[3]", "value": 0.4}, {"measurement": "Rabbit serum looped peptides", "setting": "[3]", "value": 0.5}]}, {"sequence": "MTTVYHITVSQIQLS", "values": [{"measurement": "Binding of Control Serum Blood-Bank to Looped peptides", "setting": "[1]", "value": 0.6}, {"measurement": "Binding of Control serum Blood-bank to linear peptides", "setting": "[1]", "value": 0.6}, {"measurement": "Binding of Control serum LUMC to linear peptides", "setting": "[1]", "value": 0.6}, {"measurement": "Binding of Control serum LUMC to looped peptides", "setting": "[1]", "value": 0.5}, {"measurement": "Binding of serum 1a to linear peptides of protein X2", "setting": "[2]", "value": 0.7}, {"measurement": "Binding of serum 1a to looped/cyclic peptides of protein X2 of SARS-CoV Urbani", "setting": "[2]", "value": 0.5}, {"measurement": "Binding of serum 1b to linear peptides of protein X2", "setting": "[2]", "value": 0.6}, {"measurement": "Binding of serum 1b to looped/cyclic peptides of protein X2 of SARS-CoV Urbani", "setting": "[2]", "value": 0.5}, {"measurement": "Binding of serum 2 to linear peptides of protein X2", "setting": "[2]", "value": 0.5}, {"measurement": "Binding of serum 2 to looped/cyclic peptides of protein X2 of SARS-CoV Urbani", "setting": "[2]", "value": 0.3}, {"measurement": "Binding of serum 6 to linear peptides of protein X2", "setting": "[2]", "value": 0.5}, {"measurement": "Binding of serum 6 to looped/cyclic peptides of protein X2 of SARS-CoV Urbani", "setting": "[2]", "value": 0.3}, {"measurement": "Binding of serum 37 to linear peptides of protein X2", "setting": "[2]", "value": 0.6}, {"measurement": "Binding of serum 37 to looped/cyclic peptides of protein X2 of SARS-CoV Urbani", "setting": "[2]", "value": 0.5}, {"measurement": "Binding of serum 62 to linear peptides of protein X2", "setting": "[2]", "value": 0.5}, {"measurement": "Binding of serum 62 to looped/cyclic peptides of protein X2 of SARS-CoV Urbani", "setting": "[2]", "value": 0.6}, {"measurement": "Binding of serum London to linear peptides of protein X2", "setting": "[2]", "value": 0.5}, {"measurement": "Binding of serum London to looped/cyclic peptides of protein X2 of SARS-CoV Urbani", "setting": "[2]", "value": 0.2}, {"measurement": "Binding of serum SARS-green to linear peptides of protein X2", "setting": "[2]", "value": 0.2}, {"measurement": "Binding of serum SARS-green to looped/cyclic peptides of protein X2 of SARS-CoV Urbani", "setting": "[2]", "value": 0.4}, {"measurement": "Binding of serum SARS-yellow to linear peptides of protein X2", "setting": "[2]", "value": 0.6}, {"measurement": "Binding of serum SARS-yellow to looped/cyclic peptides of protein X2 of SARS-CoV Urbani", "setting": "[2]", "value": 0.4}, {"measurement": "Binding of a rabbit serum to linear peptides", "setting": "[3]", "value": 0.7}, {"measurement": "Binding of a rabbit serum to looped peptides", "setting": "[3]", "value": 0.4}]}]}
